Laboratory results from patent publication US8592422B2, “Bicyclic triazole and pyrazole lactams as allosteric modulators of mGluR5 receptors” (Vanderbilt University, priority 2010, dated 2013).

Molecular target: T1, human mGluR5a receptor (Homo sapiens, UniProt P41594)
T1 construct: cDNA subcloned into pcDNA3.1(-)
Experiment: Cell-based functional Ca2+ mobilization assay (FDSS), potentiation of glutamate EC20 response
Settings: for pEC50 / EC50: HEK cells transfected with human mGluR5 (H10H or H12H), in presence of EC20 glutamate; for EC50: read-out: EC50; for Emax (%) / Emax: maximum % effect in concentration-response curve, as percent of response to maximally effective glutamate
Method: Human embryonic kidney (HEK) cells transfected with rat mGluR5 were plated in clear bottom assay plates for assay in a Functional Drug Screening System (FDSS). In the alternative assay, HEK cells transfected with human mGluR5 were plated for assay in the FDSS. In some cases the HEK cells transfected with human mGluR5 were the H10H cell line. Alternatively, the HEK cells transfected with human mGluR5 were the H12H cell line. […] The cells were loaded with a Ca^2+-sensitive fluorescent dye (e.g., Fluo-4), and the plates were washed and placed in the FDSS instrument. After establishment of a fluorescence baseline for twelve seconds, the compounds of the present invention were added to the cells, and the response in cells was measured. Alternatively, in various further aspects, after establishment of a fluorescence baseline for about three seconds, the compounds of the present invention were added to the cells, and the response in cells was measured. Five minutes later, an mGluR5 agonist (e.g., glutamate, 3,5-dihydroxyphenylglycine, or quisqualate) was added to the cells, and the response of the cells was measured.
The above described assay operated in two modes. In the first mode, a range of concentrations of the present compounds were added to cells, followed by a single fixed concentration of agonist. If a compound acted as a potentiator, an EC50 value for potentiation and a maximum extent of potentiation by the compound at this concentration of agonist was determined by non-linear curve fitting. In the second mode, several fixed concentrations of the present compounds were added to various wells on a plate, followed by a range of concentrations of agonist for each concentration of present compound; the EC50 values for the agonist at each concentration of compound were determined by non-linear curve fitting. A decrease in the EC50 value of the agonist with increasing concentrations of the present compounds (a leftward shift of the agonist concentration-response curve) is an indication of the degree of mGluR5 potentiation at a given concentration of the present compound. An increase in the EC50 value of the agonist with increasing concentrations of the present compounds (a rightward shift of the agonist concentration-response curve) is an indication of the degree of mGluR5 antagonism at a given concentration of the present compound. The second mode also indicates whether the present compounds also affect the maximum response to mGluR5 to agonists.
The mGluR5 activity was determined using the metabotropic glutamate receptor activity assays in human embryonic kidney cells as described herein, wherein the human embryonic kidney cells were transfected with human mGluR5. The compounds in Table 1 were synthesized with methods identical or analogous to those shown herein. The requisite starting materials were commercially available, described in the literature, or readily synthesized by one skilled in the art of organic synthesis. The compound number given in Table I corresponds to the compound number in Table II and the structure given therein.
Human mGluR5a cDNA in pCMV6-XL6 mammalian expression plasmid was purchased from OriGene Technologies, Inc. (catalogue number SC326357) and subcloned into pcDNA3.1(−). Human embryonic kidney (HEK) 293A cells were then transfected with human mGluR5a pcDNA3.1(−) using LipofectAmine-2000 (Invitrogen) and monoclones were selected and tested for functional response using a Ca^2+ mobilization assay. Monoclones were named for the species (“H” for human) plus the location on the plate (e.g. “10H”).
HEK cells transfected with the human mGluR5a receptor (H10H or H12H cell line) were plated at 15,000 cells/well in clear-bottomed poly-D-lysine-coated assay plates (BD Falcon) in glutamate-glutamine-free growth medium and incubated overnight at 37° C. and 5% CO2.

T1 sequence (P41594 21-1180 isoform P41594-2 limits assumed): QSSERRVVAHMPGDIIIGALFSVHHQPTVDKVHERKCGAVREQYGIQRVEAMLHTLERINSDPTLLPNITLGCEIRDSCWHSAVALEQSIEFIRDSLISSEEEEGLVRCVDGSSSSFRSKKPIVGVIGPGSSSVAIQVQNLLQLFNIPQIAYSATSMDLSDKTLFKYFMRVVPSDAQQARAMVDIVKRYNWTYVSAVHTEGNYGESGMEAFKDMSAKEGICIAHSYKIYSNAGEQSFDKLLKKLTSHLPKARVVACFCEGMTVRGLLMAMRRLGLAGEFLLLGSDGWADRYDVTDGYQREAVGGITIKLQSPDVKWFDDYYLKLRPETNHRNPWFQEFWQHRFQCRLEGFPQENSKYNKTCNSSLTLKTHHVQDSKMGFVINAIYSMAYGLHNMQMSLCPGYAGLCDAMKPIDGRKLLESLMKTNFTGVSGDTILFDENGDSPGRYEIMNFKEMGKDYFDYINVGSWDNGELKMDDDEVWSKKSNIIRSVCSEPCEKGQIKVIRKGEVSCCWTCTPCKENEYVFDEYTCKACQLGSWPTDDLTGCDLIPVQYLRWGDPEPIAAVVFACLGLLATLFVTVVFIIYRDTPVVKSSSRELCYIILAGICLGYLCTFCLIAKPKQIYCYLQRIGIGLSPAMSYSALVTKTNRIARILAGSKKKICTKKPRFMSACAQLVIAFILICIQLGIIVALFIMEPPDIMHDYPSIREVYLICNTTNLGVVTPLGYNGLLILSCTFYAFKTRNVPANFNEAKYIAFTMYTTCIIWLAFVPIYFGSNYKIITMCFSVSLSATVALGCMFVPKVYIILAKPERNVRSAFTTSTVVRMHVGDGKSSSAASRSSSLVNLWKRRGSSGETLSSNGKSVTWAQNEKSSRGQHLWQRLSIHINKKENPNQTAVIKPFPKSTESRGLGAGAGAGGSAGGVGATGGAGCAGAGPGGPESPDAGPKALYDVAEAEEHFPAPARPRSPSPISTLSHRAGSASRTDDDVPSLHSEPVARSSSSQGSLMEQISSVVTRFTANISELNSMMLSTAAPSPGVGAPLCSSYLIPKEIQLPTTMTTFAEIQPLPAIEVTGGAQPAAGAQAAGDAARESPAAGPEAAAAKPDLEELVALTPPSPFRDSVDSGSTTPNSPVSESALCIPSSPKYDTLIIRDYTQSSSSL

| SMILES | pEC50 | EC50 | Emax (%) | Emax |
| --- | --- | --- | --- | --- |
| COc1nccc(N2CCn3nc(COc4ccccn4)cc3C2=O)n1 [Example 210] | – | 2140 nM | – | 50% |
| O=C1c2cc(COc3cccnc3)nn2CCN1CC1CC1 [Example 170] | <5.00 | > 10000 nM | 45% | – |
| O=C1c2cc(COc3ccccc3)nn2CCN1c1nc2ccccc2o1 [Example 324] | 7.24 | 58 nM | 71% | – |
| Cn1ccn2nc(COc3ccccc3)cc2c1=O [Example 37] | – | 2070 nM | – | 74% |
| Cc1nccc(N2CCn3nc(COc4ccccc4)cc3C2=O)n1 [Example 94] | 6.29 | 513 nM | 65% | – |
| COc1ccc(N2CCn3nc(COc4ccccc4)cc3C2=O)nc1OC [Example 301] | 7.02 | 96 nM | 58% | – |
| Cc1cc(OCc2cc3n(n2)CCN(c2ccc(F)cc2)C3=O)cc(C)n1 [Example 175] | – | > 30200 nM | – | 22% |
| Cc1cc(N2CCn3nc(COc4ccccn4)cc3C2=O)ccc1F [Example 203] | 6.78 | 166 nM | 66% | – |
| Cc1cnnc(N2CCn3nc(COc4ccccc4)cc3C2=O)c1 [Example 93] | <4.52 | > 30200 nM | 29% | – |
| COc1cc(N2CCn3nc(COc4ccccc4)cc3C2=O)nc(OC)n1 [Example 122] | 6.91 | 120 nM | 61% | – |
| O=C1c2cc(COc3ccccc3)nn2CCN1c1cccc(C2CC2)n1 [Example 66] | 7.03 | 93 nM | 72% | – |
| O=C1c2cc(COc3ccccc3)nn2CCN1c1ccc(F)cc1F [Example 3] | 6.94 | 115 nM | 101% | – |
| COc1nc(N2CCn3nc(COc4ccccc4)cc3C2=O)ncc1Cl [Example 295] | 7.56 | 28 nM | 69% | – |
| Cc1ccnc(OCc2cc3n(n2)CCN(c2ccc(F)cc2)C3=O)n1 [Example 186] | <4.52 | > 30200 nM | 30% | – |

Further lines, results first:

| pEC50 | EC50 | Emax (%) | Emax | SMILES |
| --- | --- | --- | --- | --- |
| 6.69 | 204 nM | 70% | – | CN(C)c1ccc(F)c(N2CCn3nc(COc4ccccn4)cc3C2=O)n1 [Example 314] |
| 6.69 | 204 nM | 73% | – | Cc1cc(F)cnc1N1CCn2nc(COc3ccccc3)cc2C1=O [Example 86] |
| – | 724 nM | – | 57% | COc1ncncc1N1CCn2nc(COc3ccccc3)cc2C1=O [Example 113] |
| 6.32 | 479 nM | 69% | – | O=C1c2cc(COc3ccccn3)nn2CCN1c1ccc(F)cc1 [Example 159] |
| 5.76 | 1740 nM | 61% | – | Cc1ccnc(OCc2cc3n(n2)CCN(c2ccc(F)cc2)C3=O)c1F [Example 198] |
| – | 525 nM | – | 62% | COc1nc(N2CCn3nc(COc4ccccn4)cc3C2=O)ncc1F [Example 209] |
| 6.58 | 263 nM | 68% | – | O=C1c2cc(COc3ccccc3)nn2CCN1c1cccc(N2CCCC2)n1 [Example 281] |
| – | 1320 nM | – | 68% | O=C1c2cc(COc3cncc(F)c3)nn2CCN1c1ccc(F)cc1 [Example 161] |
| – | > 30200 nM | – | 23% | Cc1c(COc2ccccc2)nn2c1C(=O)N(CC1CC1)CC2 [Example 261] |
| 6.58 | 260 nM | 73% | – | COc1ncc(C)cc1N1CCn2nc(COc3ccccc3)cc2C1=O [Example 298] |
| <5.00 | > 10000 nM | 71% | – | O=C1c2cc(COc3ccccc3O)nn2CCN1c1ccc(F)cn1 [Example 377] |
| 6.42 | 380 nM | 61% | – | Cc1cccc(OCc2cc3n(n2)CCN(c2ccc(F)cn2)C3=O)c1 [Example 177] |
